These results are taken from ChEMBL document CHEMBL1158384, “Design, synthesis, and biological evaluation of 1,5-benzothiazepine-4-one derivatives targeting factor VIIa/tissue factor” (Bioorg Med Chem Lett, 2009).

Experiment [1] deals with Coagulation factor VII/tissue factor (Homo sapiens, UniProt P08709). The experiment is described as follows: Inhibition of human tissue factor/factor 7a. It counts as protein-complex assay.
In a further experiment the target is Prothrombin (Homo sapiens, UniProt P00734). The experiment is described as follows: Inhibition of human factor 2a by spectrophotometry.
The target in another experiment is Coagulation factor X (Homo sapiens, UniProt P00742). The experiment is described as follows: Inhibition of human factor 10a by spectrometry.

pIC50: −log10 of the molar value.

Sequence of Coagulation factor VII/tissue factor (P08709 61-212 limits assumed): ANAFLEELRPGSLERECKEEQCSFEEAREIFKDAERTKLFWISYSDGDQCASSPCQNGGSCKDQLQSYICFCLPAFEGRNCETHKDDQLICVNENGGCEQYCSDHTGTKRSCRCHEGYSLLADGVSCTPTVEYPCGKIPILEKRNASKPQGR
Sequence of Coagulation factor VII/tissue factor (P08709 213-466 limits assumed): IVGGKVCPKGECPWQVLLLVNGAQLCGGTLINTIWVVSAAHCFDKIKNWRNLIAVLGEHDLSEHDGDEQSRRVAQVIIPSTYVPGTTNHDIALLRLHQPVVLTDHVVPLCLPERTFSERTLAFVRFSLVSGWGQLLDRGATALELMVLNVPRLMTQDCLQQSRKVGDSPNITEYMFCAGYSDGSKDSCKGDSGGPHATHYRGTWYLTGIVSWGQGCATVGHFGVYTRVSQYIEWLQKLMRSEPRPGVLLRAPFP
Sequence of Coagulation factor VII/tissue factor (P13726 33-295 partner limits assumed): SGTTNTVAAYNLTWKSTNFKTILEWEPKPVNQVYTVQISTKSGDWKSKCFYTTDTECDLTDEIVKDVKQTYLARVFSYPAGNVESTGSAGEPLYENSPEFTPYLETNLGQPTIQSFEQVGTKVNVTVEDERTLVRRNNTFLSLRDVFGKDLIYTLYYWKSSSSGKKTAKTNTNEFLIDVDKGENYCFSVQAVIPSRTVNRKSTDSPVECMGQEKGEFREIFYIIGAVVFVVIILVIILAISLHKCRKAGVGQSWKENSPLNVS
Sequence of Coagulation factor X (P00742 41-179 limits assumed): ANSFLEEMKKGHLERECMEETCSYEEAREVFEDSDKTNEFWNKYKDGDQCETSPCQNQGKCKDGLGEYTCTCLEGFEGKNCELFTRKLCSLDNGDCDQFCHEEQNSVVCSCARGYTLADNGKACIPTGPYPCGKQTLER
Sequence of Coagulation factor X (P00742 235-488 limits assumed): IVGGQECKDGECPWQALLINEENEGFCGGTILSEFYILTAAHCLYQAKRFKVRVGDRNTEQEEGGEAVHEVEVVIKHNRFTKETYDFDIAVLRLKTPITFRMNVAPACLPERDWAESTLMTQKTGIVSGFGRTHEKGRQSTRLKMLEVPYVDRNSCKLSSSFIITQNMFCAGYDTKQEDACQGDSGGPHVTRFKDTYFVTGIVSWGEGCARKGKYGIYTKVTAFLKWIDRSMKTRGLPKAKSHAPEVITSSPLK

In turn, `Cc1nc(N)ccc1CNC(=O)CN1C(=O)[C@H](NS(=O)(=O)Cc2ccccc2)CSc2ccccc21` gave a pIC50 in experiment [1] of less than 4.48. Take `N=C(N)c1ccc(CNC(=O)CN2C(=O)[C@H](NS(=O)(=O)Cc3ccccc3)CSc3cc(C(=O)O)ccc32)cc1`: the negative logarithm of the IC50 (pIC50) in experiment [1] was less than 4.48. Turning to `N=C(N)c1ccc(CNC(=O)CCN2C(=O)[C@@H](NS(=O)(=O)Cc3ccccc3)CSc3ccccc32)cc1`, the negative logarithm of the IC50 (pIC50) in experiment [1] is 4.71.

`N=C(N)c1ccc(CNC(=O)CN2C(=O)[C@H](NCC(=O)O)CSc3ccccc32)cc1` had a pIC50 in experiment [1] of 4.80. The pIC50 values of the last two molecules are within 0.2 log units of each other.

On to `N=C(N)c1ccc(CNC(=O)CN2C(=O)[C@H](NS(=O)(=O)Cc3ccccc3)CSc3cc(CCC(=O)O)ccc32)cc1`, for which the pIC50 in experiment [1] is 4.88. In the case of `N=C(N)c1ccc(CNC(=O)CN2C(=O)C(NC(=O)CCC(=O)O)CSc3ccccc32)cc1` (single isomer, unassigned), the pIC50 at Prothrombin is 3.52; in experiment [1], 4.09. As for `N=C(N)c1ccc(CNC(=O)CN2C(=O)[C@@H](NS(=O)(=O)Cc3ccccc3)CSc3ccccc32)cc1`, the pIC50 against Prothrombin was 4.32; in experiment [1] it was 4.55. For `N=C(N)c1ccc(CNC(=O)CN2C(=O)[C@H](NS(=O)(=O)Cc3ccccc3)CSc3ccc(N)cc32)cc1`, the negative logarithm of the IC50 (pIC50) on Coagulation factor X is 5.82; on Prothrombin it was 5.72; in experiment [1] it was 5.64. In experiment [1], `N=C(N)c1ccc(CNC(=O)CCN2C(=O)[C@H](NC(=O)CCC(=O)O)CSc3ccccc32)cc1` gave a pIC50 of 4.21. Turning to `CC(=O)N[C@@H]1CSc2ccccc2N(CCC(=O)NCc2ccc(C(=N)N)cc2)C1=O`, in experiment [1], the pIC50 is 3.63. `Cc1nc(N)ccc1CNC(=O)CCN1C(=O)[C@H](NS(=O)(=O)Cc2ccccc2)CSc2ccccc21` had a pIC50 in experiment [1] of less than 4.48. For `N=C(N)c1ccc(CNC(=O)CN2C(=O)[C@H](NS(=O)(=O)Cc3ccccc3)CSc3cc(CC(=O)O)ccc32)cc1`, the pIC50 in experiment [1] is 4.84.

With `N=C(N)c1ccc(CNC(=O)CN2C(=O)[C@H](NS(=O)(=O)Cc3ccccc3)CSc3ccc(CN)cc32)cc1`, the pIC50 against Coagulation factor X is 5.76; against Prothrombin it was 5.00; in experiment [1] it was 5.73.

In experiment [1], `CC(=O)N[C@@H]1CSc2ccccc2N(CC(=O)NCc2ccc(C(=N)N)cc2)C1=O` showed a pIC50 of 4.05.

In turn, `N=C(N)c1ccc(CNC(=O)CN2C(=O)[C@H](NS(=O)(=O)Cc3ccccc3)CSc3ccc(-c4ccccc4)cc32)cc1` showed a negative-log IC50 (pIC50) in experiment [1] of 4.96. This pIC50 is 0.91 log units higher than that of the molecule before. On to `N=C(N)c1ccc(CNC(=O)CN2C(=O)C(NS(=O)(=O)Cc3ccccc3)CSc3ccccc32)cc1` (single isomer, unassigned), for which the figures for the pIC50 (at Coagulation factor X; against Prothrombin; in experiment [1]) were 5.48, 6.43 and 5.67, respectively. `Cc1nc(N)ccc1CNC(=O)CN1C(=O)[C@H](NCC(=O)O)CSc2ccccc21` showed a pIC50 in experiment [1] of less than 4.48. For `N=C(N)c1ccc(CNC(=O)CN2C(=O)[C@H](NS(=O)(=O)Cc3ccccc3)CSc3ccc(CC(N)C(=O)O)cc32)cc1` (stereo partly drawn), the values for the pIC50 (at Coagulation factor X; on Prothrombin; in experiment [1]) were 5.98, 4.48 and 5.82, respectively. In the same order, the values of `N=C(N)c1ccc(CNC(=O)CN2C(=O)[C@H](NS(=O)(=O)Cc3ccccc3)CSc3ccc(-c4cccc([N+](=O)[O-])c4)cc32)cc1` are 5.55, 6.10 and 5.22.

On to `CC(=O)N[C@H]1CSc2ccccc2N(CCC(=O)NCc2ccc(C(=N)N)cc2)C1=O`, for which the negative logarithm of the IC50 (pIC50) in experiment [1] was 3.77. The same measure, in the same setting: as for `N=C(N)c1ccc(CNC(=O)CCN2C(=O)[C@H](NS(=O)(=O)Cc3ccccc3)CSc3ccccc32)cc1`, the figure is 4.20; as for `N=C(N)c1ccc(CNC(=O)CN2C(=O)[C@H](NC(=O)C(c3ccccc3)c3ccccc3)CSc3ccccc32)cc1`, less than 4.48.

Turning to `N=C(N)c1ccc(CNC(=O)CN2C(=O)[C@H](NS(=O)(=O)Cc3ccccc3)CSc3cc(N)ccc32)cc1`, the negative logarithm of the IC50 (pIC50) on Coagulation factor X is 5.79; against Prothrombin it was 5.15; in experiment [1], 5.31.

`N=C(N)c1ccc(CNC(=O)CCN2C(=O)[C@@H](NCC(=O)O)CSc3ccccc32)cc1`: the pIC50 against Prothrombin is 4.48; in experiment [1], less than 3.48. `N=C(N)c1ccc(CNC(=O)CN2C(=O)[C@H](NS(=O)(=O)Cc3ccccc3)CSc3cc(CN)ccc32)cc1`: the results for the pIC50 (on Coagulation factor X; against Prothrombin; in experiment [1]) were 6.10, 5.00 and 5.25, respectively.

Turning to `N=C(N)c1ccc(CNC(=O)CN2C(=O)[C@H](NS(=O)(=O)Cc3ccccc3)CSc3ccc(CCC(=O)O)cc32)cc1`, the pIC50 was 5.69 against Coagulation factor X, 4.48 against Prothrombin and 5.58 in experiment [1]. Turning to `N=C(N)c1ccc(CNC(=O)CCN2C(=O)[C@@H](NC(=O)CCC(=O)O)CSc3ccccc32)cc1`, the pIC50 at Prothrombin is less than 4.48; in experiment [1], 3.78. In the same order, the values of `CC(=O)N[C@H]1CSc2ccccc2N(CC(=O)NCc2ccc(N)nc2C)C1=O` are 3.89 and less than 3.52. `Cc1nc(N)ccc1CNC(=O)CCN1C(=O)[C@H](NCC(=O)O)CSc2ccccc21` gave a negative logarithm of the IC50 (pIC50) in experiment [1] of less than 4.48. Regarding `N=C(N)c1ccc(CNC(=O)CN2C(=O)[C@@H](NC(=O)CCC(=O)O)CSc3ccccc32)cc1`, the pIC50 against Prothrombin was less than 3.52; in experiment [1], 4.56. Taken in the same sequence, the figures for `Cc1nc(N)ccc1CNC(=O)CN1C(=O)[C@@H](N)CSc2ccccc21` were 4.06 and less than 3.52. With `N=C(N)c1ccc(CNC(=O)CN2C(=O)[C@H](NS(=O)(=O)Cc3ccccc3)CSc3ccc(CCN)cc32)cc1`, the pIC50 at Coagulation factor X was 5.55; at Prothrombin it was 5.21; in experiment [1] it was 5.88. As to `CC(=O)N[C@@H]1CSc2ccccc2N(CC(=O)NCc2ccc(N)nc2C)C1=O`, the negative-log IC50 (pIC50) against Prothrombin is 3.88; in experiment [1] it was less than 3.52. `N=C(N)c1ccc(CNC(=O)CCN2C(=O)[C@H](NCC(=O)O)CSc3ccccc32)cc1` showed a negative logarithm of the IC50 (pIC50) in experiment [1] of 4.02. For `Cc1nc(N)ccc1CNC(=O)CN1C(=O)[C@H](N)CSc2ccccc21`, the negative logarithm of the IC50 (pIC50) at Prothrombin was 4.06; in experiment [1], less than 3.52. Take `N=C(N)c1ccc(CNC(=O)CN2C(=O)[C@@H](N)CSc3ccccc32)cc1`: the pIC50 against Prothrombin was 4.06; in experiment [1], 4.61. Take `N=C(N)c1ccc(CNC(=O)CN2C(=O)[C@H](NS(=O)(=O)Cc3ccccc3)CSc3ccc(CC(=O)O)cc32)cc1`: the negative logarithm of the IC50 (pIC50) against Coagulation factor X was 6.68; at Prothrombin, 4.48; in experiment [1] it was 5.53. On to `CC(=O)N[C@H]1CSc2ccccc2N(CC(=O)NCc2ccc(C(=N)N)cc2)C1=O`, for which the pIC50 was 4.00 against Prothrombin and 4.43 in experiment [1].

As for `N=C(N)c1ccc(CNC(=O)CN2C(=O)[C@H](NS(=O)(=O)Cc3ccccc3)CSc3ccc(-c4cccc(N)c4)cc32)cc1`, the pIC50 is 5.49 against Coagulation factor X, 5.00 on Prothrombin and 5.16 in experiment [1]. In experiment [1], `N=C(N)c1ccc(CNC(=O)CN2C(=O)[C@H](NS(=O)(=O)Cc3ccccc3)CSc3ccc(C(=O)O)cc32)cc1` had a pIC50 of 5.33.
